Results from patent US20240327787A1, “CULTURE MEDIUM, COATING MATRIX AND METHOD FOR EXPANDING MIDBRAIN DOPAMINERGIC PROGENITOR CELLS” (NUWACELL BIOTECHNOLOGIES CO., LTD., priority 2022, published 2024).

B1: VTN: vitronectin, first coating matrix that supports cell adhesion (protein, UniProt P04004 20-478, looked up)
Vitronectin: DQESCKGRCTEGFNVDKKCQCDELCSYYQSCCTDYTAECKPQVTRGDVFTMPEDEYTVYDDGEEKNNATVHEQVGGPSLTSDLQAQSKGNPEQTPVLKPEEEAPAPEVGASKPEGIDSRPETLHPGRPQPPAEEELCSGKPFDAFTDLKNGSLFAFRGQYCYELDEKAVRPGYPKLIRDVWGIEGPIDAAFTRINCQGKTYLFKGSQYWRFEDGVLDPDYPRNISDGFDGIPDNVDAALALPAHSYSGRERVYFFKGKQYWEYQFQHQPSQEECEGSSLSAVFEHFAMMQRDSWEDIFELLFWGRTSAGTRQPQFISRDWHGVPGQVDAAMAGRIYISGMAPRPSLAKKQRFRHRNRKGYRSQRGHSRGRNQNSRRPSRATWLSLFSSEESNLGANNYDDYRMDWLVPATCEPIQSVFFFSGDKYYRVNLRTRRVDTVDPPYPRSIAQYWLGCPAPGHL

Assays:
Type in all cases: cell-based, human
[1] = tested on: imDAPs; experiment: imDAP expansion efficiency (cell number, expansion fold, Population Doubling Time); conditions: DLL4/VTN-coated; for imDAP expansion, overall conclusion of Example 9: added to CHIR99021/SB431542/Y27632 medium
Protocol: imDAPs were produced according to the method described in CN201910169525.0. The imDAPs (P0) were seeded on VTN-coated plates (1 μg/cm^2) at a density of 1×10^5cells/cm^2 in the expansion medium (50% DMEM/F12, 50% Neurobasal™ medium, 1% (v/v) Glutamax, 2% (v/v) B27 (50×), 0.2 μM LDN193189, 3 μM CHIR99021, 100 ng/mL FGF8b, 5 μM Blebbistatin). The medium was changed every day. When imDAPs reach 100% confluence (4-5 days), cells were passaged enzymatically with 1× TrypLE, centrifuged at 250 g for 5 minutes, counted and replaced on new VTN-coated plates (1 μg/cm^2) at a density of 1×10^5 cells/cm^2 in the expansion medium. imDAPs were continuously expanded for 6 passages. At each passage, imDAPs were harvested at an expansion fold 5˜10 (over the initial number of imDAPs plated).
imDAPs were produced according to the method described in CN201910169525.0. The imDAPs (P0) were seeded on DLL4-coated (1 μg/cm^2), VTN-coated (1 μg/cm^2) and DLL4/VTN-coated (1 μg/cm^2 for each) plates at a low density of 1×10^4 cells/cm^2 respectively, and cultured in the expansion medium in the absence or presence of 5 μM SB431542. Medium was replaced every 3rd day until reaching 100% confluence (6 days) for cell collection. The typical cell morphology on day 4 was recorded (FIG. 4A). The cell number of each group was counted by Vi-cell cytometer (FIG. 4B). The cells of each group were stained with Foxa2-PE antibody (BD, #561589), the percentage of Foxa2+ imDAPs were analyzed by flow cytometry (FIG. 4C). […]
imDAPs were produced according to the method described in CN201910169525.0. […] Medium was replaced every 3rd day until reaching 100% confluence (6 days) for cell passaging. imDAPs were passaged enzymatically with 1× TrypLE, centrifuged at 250 g for 5 minutes, counted and plated on new DLL4/VTN-coated plates at a density of 1×10^4 cells/cm^2 in the expansion medium. imDAPs were expanded and maintained in the expansion medium for 6 passages. […]

[2] = tested on: imDAPs; experiment: Flow cytometry analysis of FOXA2 expression in expanded imDAPs; conditions: for FOXA2 expression, FACS (FIG. 4C): VTN or DLL4+VTN coating, with or without 5 μM SB431542, 6 days
Protocol: 1. Individualize and collect cells by either Accutase or TrypLE treatment.
2. Wash cells with 1 ml PBS and pellet cells at 250×g for 15 sec.
3. Remove supernatant, add ˜200 μl of 4% PFA, mix and fix for 10 min at RT.
4. Pellet cells at 350×g for 5 min.
5. Wash cells by 1 ml of FACS buffer and pellet cells at 350×g for 5 min.
6. Remove supernatant, add 200 μl/tube of FACS buffer/0.1% TritonX, mix for 10 min at RT.
7. Wash cells by 1 ml of FACS buffer and pellet cells at 350×g for 5 min.
8. Remove supernatant, add 200 μl/tube of primary antibody diluted in FACS buffer, mix gently, and incubate for 30 min at RT.
9. Wash cells by 1 ml of FACS buffer and pellet cells at 350×g for 5 min.
10. Remove supernatant, and add 200 μl of secondary antibody diluted in FACS buffer, mix gently, and incubate for 30 min at RT.
11. Wash cells by 1 ml of FACS buffer and pellet cells at 300×g for 5 min.
12. Remove supernatant, add 200 μl of FACS buffer, and run samples on the flow cytometry.
imDAPs were produced according to the method described in CN201910169525.0. The imDAPs (P0) were seeded on VTN-coated plates (1 μg/cm^2) at a low density of 1×10^4 cells/cm^2, and cultured in the expansion medium (50% DMEM/F12, 50% Neurobasal™ medium, 1% (v/v) Glutamax, 2% (v/v) B27 (50×), 0.2 μM LDN193189, 3 μM CHIR99021, 100 ng/mL FGF8b) with either 5 μM Blebbistatin or 10 μM Y27632. Medium was replaced every 3rd day. At Day 6, cells were collected for FACS analysis.
(§1) imDAPs were produced according to the method described in CN201910169525.0. The imDAPs (P0) were seeded on DLL4-coated (1 μg/cm^2), VTN-coated (1 μg/cm^2) and DLL4/VTN-coated (1 μg/cm^2 for each) plates at a low density of 1×10^4 cells/cm^2 respectively, and cultured in the expansion medium in the absence or presence of 5 μM SB431542. Medium was replaced every 3rd day until reaching 100% confluence (6 days) for cell collection. The typical cell morphology on day 4 was recorded (FIG. 4A). The cell number of each group was counted by Vi-cell cytometer (FIG. 4B). The cells of each group were stained with Foxa2-PE antibody (BD, #561589), the percentage of Foxa2+ imDAPs were analyzed by flow cytometry (FIG. 4C). The expansion medium used in this example contained the following components: 50% DMEM/F12, 50% Neurobasal™ medium, 1% (v/v) Glutamax, 1% (v/v) B27, 50 μg/ml ascorbic acid, 0.2 μM LDN193189, 100 ng/ml FGF8b, 3 μM CHIR99021 and 10 µM Y27632.
imDAPs were produced according to the method described in CN201910169525.0. The imDAPs (P0) were seeded on DLL4/VTN-coated (1 μg/cm^2 for each) plates at a low density of 1×10^4 cells/cm^2, and cultured in the expansion medium (EM1, EM2, EM3, EM4). Medium was replaced every 3rd day until reaching 100% confluence (6 days) for cell collection. EM1 used in Example 9 contained the following components: 50% DMEM/F12, 50% Neurobasal™ medium, 1% (v/v) Glutamax, 1% (v/v) B27 (50×), 50 μg/ml ascorbic acid, 3 μM CHIR99021, 5 μM SB431542 and 10 μM Y27632. EM2 used in Example 9 contained the following components: 50% DMEM/F12, 50% Neurobasal™ medium, 1% (v/v) Glutamax, 1% (v/v) B27 (50×), 50 μg/ml ascorbic acid, 0.2 μM LDN193189, 3 μM CHIR99021, 5 μM SB431542 and 10 μM Y27632. EM3 used in Example 9 contained the following components: 50% DMEM/F12, 50% Neurobasal™ medium, 1% (v/v) Glutamax, 1% (v/v) B27 (50×), 50 μg/mL ascorbic acid, 0.2 μM LDN193189, 100 ng/ml FGF8b, 3 μM CHIR99021, 5 μM SB431542 and 10 μM Y27632. […]

[3] = tested on: imDAPs; experiment: imDAP expansion, cell morphology (bright-field); conditions: for attachment and morphology of imDAPs on coated surface (FIG. 4A): coating 1 μg/cm^2 each, day 4, Example 8 expansion medium
Protocol: imDAPs were produced according to the method described in CN201910169525.0. The imDAPs (P0) were seeded on VTN-coated plates (1 μg/cm^2) at a density of 1×10^5 cells/cm^2 in the expansion medium (50% DMEM/F12, 50% Neurobasal™ medium, 1% (v/v) Glutamax, 2% (v/v) B27 (50×), 0.2 μM LDN193189, 3 μM CHIR99021, 100 ng/mL FGF8b) in the absence or presence of 5 μM Blebbistatin. In case where Blebbistatin is present, Blebbistatin was either removed 24 hrs after plating or present throughout the culture period. The medium was changed every day for 5 days.
imDAPs were produced according to the method described in CN201910169525.0. The imDAPs (P0) were seeded on VTN-coated plates (1 μg/cm^2) at a density of 1×10^5 cells/cm^2 in the expansion medium (50% DMEM/F12, 50% Neurobasal™ medium, 1% (v/v) Glutamax, 2% (v/v) B27 (50×), 3 μM CHIR99021, 100 ng/mL FGF8b, 5 μM Blebbistatin) in the absence or presence of 0.2 μM LDN193189. The medium was changed every day for 5 days.
as §1
imDAPs were produced according to the method described in CN201910169525.0. The imDAPs (P0) were seeded on DLL4/VTN-coated (1 μg/cm^2 for each) plates at a low density of 1×10^4 cells/cm^2, and cultured in the expansion medium (EM1, EM2, EM3, EM4). Medium was replaced every 3rd day until reaching 100% confluence (6 days) for cell collection. EM1 used in Example 9 contained the following components: 50% DMEM/F12, 50% Neurobasal™ medium, 1% (v/v) Glutamax, 1% (v/v) B27 (50×), 50 μg/ml ascorbic acid, 3 μM CHIR99021, 5 μM SB431542 and 10 μM Y27632. EM2 used in Example 9 contained the following components: 50% DMEM/F12, 50% Neurobasal™ medium, 1% (v/v) Glutamax, 1% (v/v) B27 (50×), 50 μg/ml ascorbic acid, 0.2 μM LDN193189, 3 μM CHIR99021, 5 μM SB431542 and 10 μM Y27632. EM3 used in Example 9 contained the following components: 50% DMEM/F12, 50% Neurobasal™ medium, 1% (v/v) Glutamax, 1% (v/v) B27 (50×), 50 μg/mL ascorbic acid, 0.2 μM LDN193189, 100 ng/ml FGF8b, 3 μM CHIR99021, 5 μM SB431542 and 10 μM Y27632. EM4 used in Example 9 contained the following components: 50% DMEM/F12, 50% Neurobasal™ medium, 1% (v/v) Glutamax, 1% (v/v) B27 (50×), 50 μg/ml ascorbic acid, 0.2 μM LDN193189, 10 ng/ml FGF2, 3 μM CHIR99021, 5 μM SB431542 and 10 μM Y27632.

Molecule | imDAP expansion, overall conclusion of Example 9 [1] | FOXA2 expression, FACS (FIG. 4C) [2] | attachment and morphology of imDAPs on coated surface (FIG. 4A) [3] | other results
c1ccc2c(-c3cnn4cc(-c5ccc(N6CCNCC6)cc5)cnc34)ccnc2c1 [LDN193189] | had no additional effects on imDAP expansion | – | – | cell number during expansion (FIG. 5B) ([1]; adding 0.2 μM LDN193189 and/or 100 ng/ml FGF8b to CHIR99021/SB431542/Y27632 medium, 6 days): had no additional effect on increasing the cell number; expression of FOXA2 for imDAPs, flow cytometry (FIG. 5C) ([2]; addition of 100 ng/ml FGF8b and/or 0.2 μM LDN193189, DLL4/VTN-coated, P1 cells): slightly decreased the expression of FOXA2; cell morphology of expanded imDAPs (FIG. 1B) ([3]; absence vs presence of 0.2 μM LDN193189, VTN-coated, 5 days): imDAPs cultured without LDN193189 showed more flattened morphology
DLL4: Notch agonist Delta-Like 4, used as coating matrix | – | could improve FOXA2 expression | could not support the attachment of imDAPs | –
Cc1ccc2c(c1)C(=O)C1(O)CCN(c3ccccc3)C1=N2 (centres unmarked) [Blebbistatin] | – | – | – | imDAP expansion (cell morphology, FIG. 1A) ([3]; 5 μM Blebbistatin throughout culture vs absent or removed 24 hrs after plating, VTN-coated plates, 5 days, P0 imDAPs): supported better imDAP expansion
NC(=O)c1ccc(-c2nc(-c3ccc4c(c3)OCO4)c(-c3ccccn3)[nH]2)cc1 [SB431542] | – | could improve FOXA2 expression | – | –
FGF2: fibroblast growth factor | had no additional effects on imDAP expansion | – | – | cell morphology on day 5 (FIG. 5A) ([3]; 10 ng/ml FGF2 (with 0.2 μM LDN193189) in expansion medium EM4, DLL4/VTN-coated): some obvious heterogeneous cells were observed
B1 | – | – | flattened morphology | –
